Results as given in US11472791B2 (Incyte Corporation, priority 2019, dated 2022).
pIC50: −log10 of the molar value.

molecular target: CDK2/Cyclin E1 (Homo sapiens (Human), UniProt P24941); assay: CDK2/Cyclin E1 HTRF enzyme activity assay; format: biochemical; conditions: 1 mM ATP
Protocol: Assays are conducted in white 384-well polystyrene plates in a final reaction volume of 8 μL. […] HTRF signals are read after 1 hour at room temperature on a PHERAstar FS plate reader (BMG Labtech). Data is analyzed with IDBS XLFit and GraphPad Prism 5.0 software using a three or four parameter dose response curve to determine IC50 for each compound.

| pIC50 | SMILES |
| --- | --- |
| > 7.30 | Cc1cc(CN2CCN(C)CC2)ccc1-n1cc(-c2nc(NC3CCN(S(=O)(=O)C4CC4)CC3)ncc2C(F)(F)F)cn1 [Example 234, N-(1-(Cyclopropylsulfonyl)piperidin-4-yl)-4-(1-(2-methyl-4-((4-methylpiperazin-1-yl)methyl)phenyl)-1H-pyrazol-4-yl)-5-(trifluoromethyl)pyrimidin-2-amine] |
| > 7.30 | CCNCc1ccc(-n2cc(-c3nc(NC4CCN(S(=O)(=O)CC)CC4)ncc3C#N)cn2)c(C)n1 [Example 125, 4-(1-(6-((Ethylamino)methyl)-2-methylpyridin-3-yl)-1H-pyrazol-4-yl)-2-((1-(ethylsulfonyl)piperidin-4-yl)amino)pyrimidine-5-carbonitrile] |
| > 7.30 | CS(=O)(=O)N1CCC(Nc2ncc(C#N)c(-c3cnn(-c4ccc(CN[C@H]5CCC[C@@H](O)C5)cc4Cl)c3)n2)CC1 [Example 180, 4-(1-(2-Chloro-4-((((1S,3R)-3-hydroxycyclohexyl)amino)methyl)phenyl)-1H-pyrazol-4-yl)-2((1-(methylsulfonyl)piperidin-4-yl)amino)pyrimidine-5-carbonitrile] |
| > 7.30 | CS(=O)(=O)N1CCC(Nc2ncc(C#N)c(-c3cnn(-c4ccc(CN[C@@H]5CC[C@@H](O)C5)cc4Cl)c3)n2)CC1 [Example 189, 4-(1-(2-Chloro-4-((((1R,3R)-3-hydroxycyclopentyl)amino)methyl)phenyl)-1H-pyrazol-4-yl)-2-((1-(methylsulfonyl)piperidin-4-yl)amino)pyrimidine-5-carbonitrile] |
| > 7.30 | CC(C)(O)Cn1cc(-c2nc(NC3CCN(S(=O)(=O)CCCN4CCOCC45CC5)CC3)ncc2C(F)(F)F)cn1 [Example 73, 1-(4-(2-((1-((3-(7-Oxa-4-azaspiro[2.5]octan-4-yl)propyl)sulfonyl)piperidin-4-yl)amino)-5-(trifluoromethyl)pyrimidin-4-yl)-1H-pyrazol-1-yl)-2-methylpropan-2-ol] |
| > 7.30 | Cn1cnc(S(=O)(=O)N2CCC(Nc3ncc(C(F)(F)F)c(-c4cnn(CC5CC5)c4)n3)CC2)c1 [Example 32, 4-(1-(Cyclopropylmethyl)-1H-pyrazol-4-yl)-N-(1-((1-methyl-1H-imidazol-4-yl)sulfonyl)piperidin-4-yl)-5-(trifluoromethyl)pyrimidin-2-amine] |
| > 7.30 | COC[C@@H]1CCN1CCCS(=O)(=O)N1CCC(Nc2ncc(C(F)(F)F)c(-c3cnn(CC(C)(C)O)c3)n2)CC1 [Example 221, (S)-1-(4-(2-((1-((3-(2-(Methoxymethyl)azetidin-1-yl)propyl)sulfonyl)piperidin-4-yl)amino)-5-(trifluoromethyl)pyrimidin-4-yl)-1H-pyrazol-1-yl)-2-methylpropan-2-ol] |
| > 7.30 | CCS(=O)(=O)N1CCC(Nc2ncc(C#N)c(-c3cnn(-c4ccc(CN[C@H]5C[C@](C)(O)C5)cc4Cl)c3)n2)CC1 [Example 193, 4-(1-(2-Chloro-4-((((1r,3r)-3-hydroxy-3-methylcyclobutyl)amino)methyl)phenyl)-1H-pyrazol-4-yl)-2-((1-(ethylsulfonyl)piperidin-4-yl)amino)pyrimidine-5-carbonitrile] |
| > 7.30 | CN1CC(S(=O)(=O)N2CCC(Nc3ncc(C(F)(F)F)c(-c4cnn(CC(C)(C)O)c4)n3)CC2)C1 [Example 85, 2-Methyl-1-(4-(2-((1-((1-methylazetidin-3-yl)sulfonyl)piperidin-4-yl)amino)-5-(trifluoromethyl)pyrimidin-4-yl)-1H-pyrazol-1-yl)propan-2-ol] |
| > 7.30 | CN1CCC(S(=O)(=O)N2CCC(Nc3ncc(C(F)(F)F)c(-c4cnn(CC(C)(C)O)c4)n3)CC2)C1 (racemic) [Example 86, (±)-2-Methyl-1-(4-(2-((1-((1-methylpyrrolidin-3-yl)sulfonyl)piperidin-4-yl)amino)-5-(trifluoromethyl)pyrimidin-4-yl)-1H-pyrazol-1-yl)propan-2-ol] |
| > 7.30 | C[C@H](O)CNCc1ccc(-n2cc(-c3nc(NC4CCN(S(C)(=O)=O)CC4)ncc3C#N)cn2)c(Cl)c1 [Example 292, (S)-4-(1-(2-Chloro-4-(((2-hydroxypropyl)amino)methyl)phenyl)-1H-pyrazol-4-yl)-2-((1-(methylsulfonyl)piperidin-4-yl)amino)pyrimidine-5-carbonitrile] |
| > 7.30 | [2H]C([2H])([2H])NCc1ccc(-n2cc(-c3nc(N[C@H]4CCN(S(=O)(=O)c5cn(C)cn5)C[C@H]4C)ncc3C#N)cn2)c(C)n1 [Example 150, 2-(((3R,4S)-3-Methyl-1-((1-methyl-1H-imidazol-4-yl)sulfonyl)piperidin-4-yl)amino)-4-(1-(2-methyl-6-(((methyl-d3)amino)methyl)pyridin-3-yl)-1H-pyrazol-4-yl)pyrimidine-5-carbonitrile] |
| > 7.30 | CO[C@H]1CCN(CCCS(=O)(=O)N2CCC(Nc3ncc(C(F)(F)F)c(-c4cnn(CC(C)(C)O)c4)n3)CC2)C1 [Example 219, (S)-1-(4-(2-((1-((3-(3-Methoxypyrrolidin-1-yl)propyl)sulfonyl)piperidin-4-yl)amino)-5-(trifluoromethyl)pyrimidin-4-yl)-1H-pyrazol-1-yl)-2-methylpropan-2-ol] |
| > 7.30 | CS(=O)(=O)N1CCC(Nc2ncc(C#N)c(-c3cnn(-c4ccc(CN[C@@H]5CCCC[C@@H]5O)cc4Cl)c3)n2)CC1 [Example 179, 4-(1-(2-Chloro-4-((((1R,2S)-2-hydroxycyclohexyl)amino)methyl)phenyl)-1H-pyrazol-4-yl)-2((1-(methylsulfonyl)piperidin-4-yl)amino)pyrimidine-5-carbonitrile] |
| > 7.30 | Cc1nc(CN2CCN(C)CC2)ccc1-n1cc(-c2nc(NC3CCN(S(=O)(=O)c4cn(C)cn4)CC3)ncc2Cl)cn1 [Example 249, 5-Chloro-N-(1-((1-methyl-1H-imidazol-4-yl)sulfonyl)piperidin-4-yl)-4-(1-(2-methyl-6-((4-methylpiperazin-1-yl)methyl)pyridin-3-yl)-1H-pyrazol-4-yl)pyrimidin-2-amine] |
| > 7.30 | N#Cc1cnc(NC2CCN(S(=O)(=O)c3ccccn3)CC2)nc1-c1cnn(CC(F)(F)F)c1 [Example 39, 2-((1-(Pyridin-2-ylsulfonyl)piperidin-4-yl)amino)-4-(1-(2,2,2-trifluoroethyl)-1H-pyrazol-4-yl)pyrimidine-5-carbonitrile] |
| > 7.30 | C[C@@H]1COCCN1CCCS(=O)(=O)N1CCC(Nc2ncc(C(F)(F)F)c(-c3cnn(CC(C)(C)O)c3)n2)CC1 [Example 72, (R)-2-Methyl-1-(4-(2-((1-((3-(3-methylmorpholino)propyl)sulfonyl)piperidin-4-yl)amino)-5-(trifluoromethyl)pyrimidin-4-yl)-1H-pyrazol-1-yl)propan-2-ol] |
| > 7.30 | CN1CCN(Cc2ccc(-n3cc(-c4nc(NC5CCN(S(=O)(=O)c6cn(C)cn6)CC5)ncc4Cl)cn3)c(C#N)c2)CC1 [Example 244, 2-(4-(5-Chloro-2-((1-((1-methyl-1H-imidazol-4-yl)sulfonyl)piperidin-4-yl)amino)pyrimidin-4-yl)-1H-pyrazol-1-yl)-5-((4-methylpiperazin-1-yl)methyl)benzonitrile] |
| > 7.30 | CC(C)(O)Cn1cc(-c2nc(NC3CCN(S(=O)(=O)CCCN4CCCC4)CC3)ncc2C(F)(F)F)cn1 [Example 66, 2-Methyl-1-(4-(2-((1-((3-(pyrrolidin-1-yl)propyl)sulfonyl)piperidin-4-yl)amino)-5-(trifluoromethyl)pyrimidin-4-yl)-1H-pyrazol-1-yl)propan-2-ol] |
| > 7.30 | CC(C)(NCc1ccc(-n2cc(-c3nc(NC4CCN(S(C)(=O)=O)CC4)ncc3C#N)cn2)c(Cl)c1)C(N)=O [Example 160, 2-((3-Chloro-4-(4-(5-cyano-2-((1-(methylsulfonyl)piperidin-4-yl)amino)pyrimidin-4-yl)-1H-pyrazol-1-yl)benzyl)amino)-2-methylpropanamide] |
| > 7.30 | C[C@]1(N)C[C@@H](n2cc(-c3nc(NC4CCN(S(=O)(=O)C5CCC5)CC4)ncc3C(F)(F)F)cn2)C1 [Example 46, 4-(1-((1s,3s)-3-Amino-3-methylcyclobutyl)-1H-pyrazol-4-yl)-N-(1-(cyclobutylsulfonyl)piperidin-4-yl)-5-(trifluoromethyl)pyrimidin-2-amine] |
| > 7.30 | CCN1CCN(Cc2ccc(-n3cc(-c4nc(NC5CCN(S(C)(=O)=O)CC5)ncc4C(F)(F)F)cn3)c(C)c2)CC1 [Example 232, 4-(1-(4-((4-Ethylpiperazin-1-yl)methyl)-2-methylphenyl)-1H-pyrazol-4-yl)-N-(1-(methylsulfonyl)piperidin-4-yl)-5-(trifluoromethyl)pyrimidin-2-amine] |
| > 7.30 | C[C@]1(N)C[C@@H](n2cc(-c3nc(N[C@H]4CCN(S(=O)(=O)C5CCC5)C[C@H]4F)ncc3C(F)(F)F)cn2)C1 [Example 48, 4-(1-((1s,3r)-3-Amino-3-methylcyclobutyl)-1H-pyrazol-4-yl)-N-((3R,4S)-1-(cyclobutylsulfonyl)-3-fluoropiperidin-4-yl)-5-(trifluoromethyl)pyrimidin-2-amine] |
| > 7.30 | CS(=O)(=O)CCNCc1ccc(-n2cc(-c3nc(NC4CCN(S(C)(=O)=O)CC4)ncc3C#N)cn2)c(Cl)c1 [Example 200, 4-(1-(2-Chloro-4-(((2-(methylsulfonyl)ethyl)amino)methyl)phenyl)-1H-pyrazol-4-yl)-2-((1-(methylsulfonyl)piperidin-4-yl)amino)pyrimidine-5-carbonitrile] |
| > 7.30 | Cc1nc(CNC(C)(C)C)ccc1-n1cc(-c2nc(NC3CCN(S(=O)(=O)C4CC4)CC3)ncc2C#N)cn1 [Example 277, 4-(1-(6-((tert-Butylamino)methyl)-2-methylpyridin-3-yl)-1H-pyrazol-4-yl)-2-((1-(cyclopropylsulfonyl)piperidin-4-yl)amino)pyrimidine-5-carbonitrile] |
| > 7.30 | CN1CCN(CCCS(=O)(=O)N2CC[C@H](Nc3ncc(C(F)(F)F)c(-c4cnn(CC(C)(C)O)c4)n3)[C@H](F)C2)CC1 [Example 209, 1-(4-(2-(((3R,4S)-3-Fluoro-1-((3-(4-methylpiperazin-1-yl)propyl)sulfonyl)piperidin-4-yl)amino)-5-(trifluoromethyl)pyrimidin-4-yl)-1H-pyrazol-1-yl)-2-methylpropan-2-ol] |
